Results published in US20220259593A1, “CONTROL OF MAMMALIAN GENE DOSAGE USING CRISPR” (The Regents of the University of California, priority 2019, published 2022).

System: K562 CRISPRi cells
Assay: Perturb-seq pooled growth measurement (sgRNA counts, growth phenotype γ, relative activity)
Format: cell-based, human
Conditions: sequencing read counts; for Perturb-seq pooled growth sgRNA counts, d5: 5 days of growth (day seven after transduction); for Perturb-seq pooled growth sgRNA counts, d10: 10 days of growth (day twelve after transduction); for Perturb-seq pooled growth sgRNA counts, T0: T0 = day two after transduction
Procedure, shortened: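 CRISPRi K562 cells from the Perturb-seq transduced pool; 500,000-cell samples taken days two, seven and twelve post-transduction. sgRNA amplicons from genomic DNA sequenced; growth phenotypes from normalized sgRNA abundances at days seven and twelve versus day two. Relative activity assigned from day seven (five days' growth).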

Substance	Perturb-seq pooled growth sgRNA counts, d5	Perturb-seq pooled growth sgRNA counts, d10	Perturb-seq pooled growth sgRNA counts, T0
RPL9_+_39460483.23-P1P2_05: sgRNA targeting RPL9, GGATGTTTCGGTGCTCGTGG, SEQ ID NO: 52 (listed as DNA, chemistry not fully specified)	2217	2355	4950
RPL9_+_39460483.23-P1P2_07: sgRNA targeting RPL9, GGATGTTTCTGCGCTCGTGG, SEQ ID NO: 54 (listed as DNA, chemistry not fully specified)	7867	9339	7336
RPS14_+_149829238.23-P1P2_00: sgRNA targeting RPS14, GAGGCCCGGGCGCGACAATC, SEQ ID NO: 45 (listed as DNA, chemistry not fully specified)	3190	2984	11846
RPS14_+_149829238.23-P1P2_01: sgRNA targeting RPS14, GAGACCCGGGCGCGACAATC, SEQ ID NO: 46 (listed as DNA, chemistry not fully specified)	1474	1385	4954
RPS14_+_149829238.23-P1P2_02: sgRNA targeting RPS14, GAGGCCCTGGCGCGACAATC, SEQ ID NO: 47 (listed as DNA, chemistry not fully specified)	5497	5538	11519
RPS14_+_149829238.23-P1P2_04: sgRNA targeting RPS14, GAGGCCCGCGCGCGACAATC, SEQ ID NO: 48 (listed as DNA, chemistry not fully specified)	9641	12547	9244
RPS14_+_149829238.23-P1P2_08: sgRNA targeting RPS14, GAGGCCCGGGCTCGACAATC, SEQ ID NO: 50 (listed as DNA, chemistry not fully specified)	11681	17976	4488
RPS14_+_149829238.23-P1P2_13: sgRNA targeting RPS14, GAGGCCCGGGCGCGACAGTC, SEQ ID NO: 49 (listed as DNA, chemistry not fully specified)	9567	12082	7137
RPS15_−_1438413.23-P1P2_00: sgRNA targeting RPS15, GACCAAAGCGATCTCTTCTG, SEQ ID NO: 60 (listed as DNA, chemistry not fully specified)	2912	3376	6757
RPS15_−_1438413.23-P1P2_01: sgRNA targeting RPS15, GACCAAACCGATCTCTTCTG, SEQ ID NO: 64 (listed as DNA, chemistry not fully specified)	23866	39345	9713
RPS15_−_1438413.23-P1P2_02: sgRNA targeting RPS15, GACCAAGGCGATCTCTTCTG, SEQ ID NO: 62 (listed as DNA, chemistry not fully specified)	3113	3548	5051
RPS15_−_1438413.23-P1P2_07: sgRNA targeting RPS15, GACCAAAGCGGTCTCTTCTG, SEQ ID NO: 61 (listed as DNA, chemistry not fully specified)	3595	4631	6337
RPS15_−_1438413.23-P1P2_12: sgRNA targeting RPS15, GACCAAAGCGATCTCTTGTG, SEQ ID NO: 63 (listed as DNA, chemistry not fully specified)	12257	19991	4661
RPS18_+_33239917.23-P1P2_00: sgRNA targeting RPS18, GCTGCGATGCCGCTGGATCA, SEQ ID NO: 40 (listed as DNA, chemistry not fully specified)	1556	1535	6212
RPS18_+_33239917.23-P1P2_01: sgRNA targeting RPS18, GCTGCAATGCCGCTGGATCA, SEQ ID NO: 41 (listed as DNA, chemistry not fully specified)	2658	2571	5202
RPS18_+_33239917.23-P1P2_02: sgRNA targeting RPS18, GCTGGGATGCCGCTGGATCA, SEQ ID NO: 42 (listed as DNA, chemistry not fully specified)	3404	3757	5486
RPS18_+_33239917.23-P1P2_04: sgRNA targeting RPS18, GCTGCGATCCCGCTGGATCA, SEQ ID NO: 44 (listed as DNA, chemistry not fully specified)	9728	13186	5132
RPS18_+_33239917.23-P1P2_08: sgRNA targeting RPS18, GCTGCGATTCCGCTGGATCA, SEQ ID NO: 43 (listed as DNA, chemistry not fully specified)	11101	13839	8535
SEC61A1_−_127771295.23-P1_00: sgRNA targeting SEC61A1, GGCACTGACGTGTCTCTCGG, SEQ ID NO: 83 (listed as DNA, chemistry not fully specified)	2151	2025	11429
SEC61A1_−_127771295.23-P1_01: sgRNA targeting SEC61A1, GGCACTGTCGTGTCTCTCGG, SEQ ID NO: 85 (listed as DNA, chemistry not fully specified)	4006	4229	5308
SEC61A1_−_127771295.23-P1_02: sgRNA targeting SEC61A1, GGCGCTGACGTGTCTCTCGG, SEQ ID NO: 84 (listed as DNA, chemistry not fully specified)	4030	4238	9991
SEC61A1_−_127771295.23-P1_03: sgRNA targeting SEC61A1, GGTACTGACGTGTCTCTCGG, SEQ ID NO: 86 (listed as DNA, chemistry not fully specified)	3530	3563	5904
SEC61A1_−_127771295.23-P1_04: sgRNA targeting SEC61A1, GGCACTGAAGTGTCTCTCGG, SEQ ID NO: 87 (listed as DNA, chemistry not fully specified)	7999	10772	5081
TUBB_+_30688126.23-P1_00: sgRNA targeting TUBB, GCGGCAGGAAGGTTCTGAGA, SEQ ID NO: 23 (listed as DNA, chemistry not fully specified)	2722	1125	13570
TUBB_+_30688126.23-P1_01: sgRNA targeting TUBB, GCAGCAGGAAGGTTCTGAGA, SEQ ID NO: 106 (listed as DNA, chemistry not fully specified)	1319	962	7125
TUBB_+_30688126.23-P1_03: sgRNA targeting TUBB, GCGGCAGCAAGGTTCTGAGA, SEQ ID NO: 108 (listed as DNA, chemistry not fully specified)	1680	1221	4751
